Reference: patent US8722849B2, “Polypeptides” (Novo Nordisk A/S, priority 2011, dated 2014)
In brackets after ≈: the same amount, converted by molar mass. Where two headings read alike, the source gives them in different places. Starred links: 1 amine or outer side, 2 acyl side, 3 side chain; linkers in the order of their positions; H or OH if unused. Positions of bridges follow the written chain, without caps; N, C: chain ends. Residues, ends and D or L forms follow the SMILES beside them. *: point of attachment. C20 diacid = O=C(O)CCCCCCCCCCCCCCCCCCC(=O)*; γGlu = O=C(O)[C@H](CCC(=O)[*:2])N[*:1]

Assays:
[1] = molecular target: T1, human calcitonin receptor (Homo sapiens, UniProt P30988); assay: Assay (II)a functional CRE-luciferase assay, human calcitonin receptor; format: cell-based; conditions: Table 7; human calcitonin (CTa) receptor
T1 construct: expressed in transfected cells; host or cells: BHK570
T1 sequence (P30988 25-474): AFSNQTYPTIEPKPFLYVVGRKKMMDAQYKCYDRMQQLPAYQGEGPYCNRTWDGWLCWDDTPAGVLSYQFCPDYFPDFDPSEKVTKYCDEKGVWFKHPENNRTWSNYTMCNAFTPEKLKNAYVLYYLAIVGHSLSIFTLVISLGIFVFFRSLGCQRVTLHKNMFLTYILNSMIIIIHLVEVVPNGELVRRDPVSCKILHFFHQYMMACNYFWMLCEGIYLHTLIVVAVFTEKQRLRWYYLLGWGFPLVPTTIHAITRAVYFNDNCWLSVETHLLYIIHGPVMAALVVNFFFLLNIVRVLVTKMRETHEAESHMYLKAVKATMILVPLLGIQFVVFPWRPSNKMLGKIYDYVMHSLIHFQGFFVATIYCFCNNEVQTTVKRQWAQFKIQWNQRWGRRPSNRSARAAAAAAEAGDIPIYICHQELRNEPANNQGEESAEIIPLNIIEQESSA

[2] = Assay (IV) determination of solubility; format: physicochemical
Procedure, shortened: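 Polypeptide in water (~500 nmol/ml) mixed 1:1 with 100 mM glycylglycine (pH 3.0–5.0) or bistrispropane (pH 6.0–8.0) buffers. Held 18 hours at room temperature, then centrifuged. Polypeptide remaining in solution quantified by HPLC.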

[3] = molecular target: T2, human amylin receptor (amylin 3(a) receptor: human calcitonin receptor + RAMP-3) (Homo sapiens, UniProt O60896+P30988); assay: Assay (II)a functional CRE-luciferase assay, human amylin receptor; format: cell-based; conditions: Table 2; BHK amylin 3(a)-receptor/CRE-luc cells
T2 construct: expressed in transfected cells; host or cells: BHK570
T2 sequence (P30988 25-474): T1 sequence (P30988 25-474)
T2 sequence (O60896 24-148 partner): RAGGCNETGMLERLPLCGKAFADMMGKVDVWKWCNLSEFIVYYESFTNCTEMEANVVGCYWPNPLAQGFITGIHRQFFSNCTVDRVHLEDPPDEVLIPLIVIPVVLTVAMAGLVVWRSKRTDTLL

[4] = bistrispropane buffer, pH 6, pH 6.0, read-out: Solubility pH 6.0
[5] = bistrispropane buffer, pH 6.5, pH 6.5, read-out: Solubility pH 6.5
[6] = bistrispropane buffer, pH 7, pH 7.0, 18 hours at room temperature, Table 3, read-out: Solubility pH 7.0
[7] = bistrispropane buffer, pH 7, pH 7.0, read-out: Solubility pH 7.0
[8] = bistrispropane buffer, pH 7.5, pH 7.5, read-out: Solubility pH 7.5
[9] = bistrispropane buffer, pH 8, pH 8.0, read-out: Solubility pH 8.0
[10] = glycylglycine buffer, pH 3, pH 3.0, read-out: Solubility pH 3.0
[11] = glycylglycine buffer, pH 4, pH 4.0, 18 hours at room temperature, Table 2, read-out: Solubility pH 4.0
[12] = glycylglycine buffer, pH 4, pH 4.0, read-out: Solubility pH 4.0

EC50 [1] [nM]	solubility at 18 h [2, 4] [µM]	solubility at 18 h [2, 5] [µM]	solubility at 18 h [2, 6] [µM]	solubility at 18 h [2, 7] [µM]	solubility at 18 h [2, 8] [µM]	solubility at 18 h [2, 9] [µM]	solubility at 18 h [2, 10] [µM]	solubility at 18 h [2, 11] [µM]	solubility at 18 h [2, 12] [µM]	solubility at 18 h ([2]; glycylglycine buffer, pH 5, pH 5.0, read-out: Solubility pH 5.0) [µM]	EC50 [3] [nM]	solubility at 18 h ([2]; pH 5.0, read-out: Solubility pH 5.0) [µM]	solubility at 18 h ([2]; pH 6.0, read-out: Solubility pH 6.0) [µM]	solubility at 18 h ([2]; pH 6.5, read-out: Solubility pH 6.5) [µM]	solubility at 18 h ([2]; pH 7.0, read-out: Solubility pH 7.0) [µM]	Structure (SMILES)
0.657	> 200	> 200	> 200	> 200	> 200	> 200	> 200	> 200	> 200	107 (≈ 477 µg/mL)	0.377	–	–	–	–	CC[C@H](C)[C@H](NC(=O)[C@@H]1CCCN1C(=O)CNC(=O)[C@H](Cc1ccccc1)NC(=O)[C@H](CC(N)=O)NC(=O)[C@H](CC(N)=O)NC(=O)[C@H](CO)NC(=O)[C@H](CO)NC(=O)[C@H](Cc1cnc[nH]1)NC(=O)[C@H](Cc1cnc[nH]1)NC(=O)[C@H](CC(C)C)NC(=O)[C@H](Cc1ccccc1)NC(=O)[C@H](CCC(=O)O)NC(=O)[C@H](C)NC(=O)[C@H](CC(C)C)NC(=O)[C@H](CCCNC(=N)N)NC(=O)[C@H](CCC(N)=O)NC(=O)[C@@H](NC(=O)[C@H](C)NC(=O)[C@@H]1CSSC[C@H](NC(=O)[C@H](CCC(=O)O)NC(=O)CC[C@H](NC(=O)CCCCCCCCCCCCCCCCCCC(=O)O)C(=O)O)C(=O)N[C@@H](CC(N)=O)C(=O)N[C@@H]([C@@H](C)O)C(=O)N[C@@H](C)C(=O)N[C@@H]([C@@H](C)O)C(=O)N1)[C@@H](C)O)C(=O)N[C@@H](CC(C)C)C(=O)N1CCC[C@H]1C(=O)N1CCC[C@H]1C(=O)N[C@H](C(=O)N[C@@H](CC(N)=O)C(=O)N[C@H](C(=O)NCC(=O)N[C@@H](CO)C(=O)N[C@@H](CC(N)=O)C(=O)N[C@H](C(=O)N[C@@H](Cc1ccc(O)cc1)C(N)=O)[C@@H](C)O)C(C)C)[C@@H](C)O [Example 29, N-alpha-[(S)-4-Carboxy-4-(19-carboxynonadecanoylamino)butyryl]-[Glu1,Glu14,His17]-pramlintide] ({C20 diacid-γGlu}-ECNTATCATQRLAEFLHHSSNNFGPILPPTNVGSNTY-NH2; disulfide 2-7)
0.125	–	–	–	–	56 (≈ 249 µg/mL)	134 (≈ 596 µg/mL)	> 200	> 200	> 200	–	0.083	10 (≈ 44.5 µg/mL)	1 (≈ 4.45 µg/mL)	1 (≈ 4.45 µg/mL)	10 (≈ 44.5 µg/mL)	CC[C@H](C)[C@H](NC(=O)[C@@H]1CCCN1C(=O)CNC(=O)[C@H](Cc1ccccc1)NC(=O)[C@H](CC(N)=O)NC(=O)[C@H](CC(N)=O)NC(=O)[C@H](CO)NC(=O)[C@H](CO)NC(=O)[C@H](CCCNC(=N)N)NC(=O)[C@@H](NC(=O)[C@H](CC(C)C)NC(=O)[C@H](Cc1ccccc1)NC(=O)[C@H](CCC(=O)O)NC(=O)[C@H](C)NC(=O)[C@H](CC(C)C)NC(=O)[C@H](CCCNC(=N)N)NC(=O)[C@H](CCC(N)=O)NC(=O)[C@@H](NC(=O)[C@H](C)NC(=O)[C@@H]1CSSC[C@H](NC(=O)[C@H](Cc2cnc[nH]2)NC(=O)CC[C@H](NC(=O)CCCCCCCCCCCCCCCCCCC(=O)O)C(=O)O)C(=O)N[C@@H](CC(N)=O)C(=O)N[C@@H]([C@@H](C)O)C(=O)N[C@@H](C)C(=O)N[C@@H]([C@@H](C)O)C(=O)N1)[C@@H](C)O)C(C)C)C(=O)N[C@@H](CC(C)C)C(=O)N1CCC[C@H]1C(=O)N1CCC[C@H]1C(=O)N[C@H](C(=O)N[C@@H](CC(N)=O)C(=O)N[C@H](C(=O)NCC(=O)N[C@@H](CO)C(=O)N[C@@H](CC(N)=O)C(=O)N[C@H](C(=O)N[C@@H](Cc1ccc(O)cc1)C(N)=O)[C@@H](C)O)C(C)C)[C@@H](C)O [Example 15, N-alpha-[(S)-4-Carboxy-4-(19-carboxynonadecanoylamino)butyryl]-[His1,Glu14,Arg18]-pramlintide] ({C20 diacid-γGlu}-HCNTATCATQRLAEFLVRSSNNFGPILPPTNVGSNTY-NH2; disulfide 2-7)
0.284	42 (≈ 180 µg/mL)	82 (≈ 351 µg/mL)	146 (≈ 624 µg/mL)	146 (≈ 624 µg/mL)	183 (≈ 782 µg/mL)	190 (≈ 812 µg/mL)	> 200	120 (≈ 513 µg/mL)	120 (≈ 513 µg/mL)	–	0.253	–	–	–	–	CC[C@H](C)[C@H](NC(=O)[C@@H]1CCCN1C(=O)CNC(=O)[C@H](Cc1ccccc1)NC(=O)[C@H](CCC(N)=O)NC(=O)[C@H](CCC(N)=O)NC(=O)[C@H](CO)NC(=O)[C@H](CO)NC(=O)[C@H](CCCNC(=N)N)NC(=O)[C@H](Cc1c[nH]cn1)NC(=O)[C@H](CC(C)C)NC(=O)[C@H](Cc1ccccc1)NC(=O)[C@H](CCC(=O)O)NC(=O)[C@H](C)NC(=O)[C@H](CC(C)C)NC(=O)[C@H](CCCNC(=N)N)NC(=O)[C@H](CCC(N)=O)NC(=O)[C@@H](NC(=O)[C@H](C)NC(=O)[C@@H]1CSSC[C@H](NC(=O)CC[C@H](NC(=O)CCCCCCCCCCCCCCCCCCC(=O)O)C(=O)O)C(=O)NCC(=O)N[C@@H]([C@@H](C)O)C(=O)N[C@@H](C)C(=O)N[C@@H]([C@@H](C)O)C(=O)N1)[C@@H](C)O)C(=O)N[C@@H](CC(C)C)C(=O)N1CCC[C@H]1C(=O)N1CCC[C@H]1C(=O)N[C@H](C(=O)N[C@@H](CCC(=O)O)C(=O)N[C@H](C(=O)NCC(=O)N[C@@H](CO)C(=O)NCC(=O)N[C@H](C(=O)N[C@@H](Cc1ccc(O)cc1)C(N)=O)[C@@H](C)O)C(C)C)[C@@H](C)O [Example 4, N-alpha-[(S)-4-Carboxy-4-(19-carboxynonadecanoylamino)butyryl]-[des1,Gly3,Glu14,His17,Arg18,Gln21,Gln22,Glu31,Gly35]-pramlintide] ({C20 diacid-γGlu}-CGTATCATQRLAEFLHRSSQQFGPILPPTEVGSGTY-NH2; disulfide 1-6 (inferred))
